Results: patent US20160187553A1, “METHOD OF MANUFACTURING POLARIZING PLATE, POLARIZING PLATE MANUFACTURED USING THE METHOD, AND LIQUID CRYSTAL DISPLAY DEVICE” (Konica Minolta, Inc., priority 2010, published 2016)
Where two headings read alike, the source gives them in different places.

Experiments:
[1] = reference liquid; cited from earlier work
[2] = logP of additives A and B of the protective films

logP [2]	Compound	γLd [1] [mN/m]	γLh [1] [mN/m]	γLp [1] [mN/m]	logP ([2]; additive of protective film)
	ICI [diiodomethane]	51.0	0.0	0.0	
	O=P(Oc1ccccc1)(Oc1ccccc1)Oc1ccccc1-c1ccccc1 [BDP, Biphenyldiphenyl phosphate]				7.3
	O [water]	30.4	42.4	0.0	
7.9	CCC(COC(=O)c1ccccc1)(COC(=O)c1ccccc1)COC(=O)c1ccccc1 [Compound 16]				
2.3	CCOC(=O)COC(=O)c1ccccc1C(=O)OCC [EPEG, Ethylphthalyl ethylglycolate]				
9.9	O=C(OCC(COC(=O)c1ccccc1)(COC(=O)c1ccccc1)COC(=O)c1ccccc1)c1ccccc1 [PETB, pentaerythritol-tetrabenzoate]				
	C[N+](=O)[O-] [nitromethane]	18.3	0.0	17.7	

Compound	logP [2]	γLd [1] [mN/m]	γLh [1] [mN/m]	γLp [1] [mN/m]	logP ([2]; additive of protective film)
O=P(Oc1ccccc1)(Oc1ccccc1)Oc1ccccc1 [TPP, Triphenyl phosphate]	5.6				
